# Data as given in publication PMC5218480 (PLoS ONE, 2017).
# System: MV-4-11 cells
# Assay: Gene expression microarray analysis (Affymetrix PrimeView) and GSEA
# Format: cell-based, human
# Set-up: RFU PODN (11730768_x_at) / Fold change /veh PODN (11730768_x_at) / RFU LINC00158 (11744669_a_at) / Fold change /veh LINC00158 (11744669_a_at) / RFU DUSP10 (11751237_a_at) / Fold change /veh DUSP10 (11751237_a_at) / RFU ID3 (11757404_x_at) / Fold change /veh ID3 (11757404_x_at) / RFU PLEKHG5 (11737974_s_at) / Fold change /veh PLEKHG5 (11737974_s_at) / RFU LRRC4B (11730491_at) / Fold change /veh LRRC4B (11730491_at) / RFU GIMAP4 (11747438_a_at) / Fold change /veh GIMAP4 (11747438_a_at) / RFU KRT8 (11758183_x_at) / Fold change /veh KRT8 (11758183_x_at) / RFU CNN1 (11734310_a_at) / Fold change /veh CNN1 (11734310_a_at) / RFU VPS37D (11726825_at) / Fold change /veh VPS37D (11726825_at) / RFU C10orf10 (11716522_x_at) / Fold change /veh C10orf10 (11716522_x_at) / RFU KIR2DL2 /// KIR2DL4 /// KIR2DL5A /// KIR2DL5B /// KIR2DS1 /// KIR2DS2 /// KIR2DS3 /// KIR2DS4 /// KIR3DL3 /// KIR3DL3 /// KIR3DS1 (11738374_at) / Fold change /veh KIR2DL2 /// KIR2DL4 /// KIR2DL5A /// KIR2DL5B /// KIR2DS1 /// KIR2DS2 /// KIR2DS3 /// KIR2DS4 /// KIR3DL3 /// KIR3DL3 /// KIR3DS1 (11738374_at) / RFU C1QL1 (11718748_at) / Fold change /veh C1QL1 (11718748_at) / RFU TMPRSS4 (11747572_a_at) / Fold change /veh TMPRSS4 (11747572_a_at) / RFU HAMP (11756126_x_at) / Fold change /veh HAMP (11756126_x_at) / RFU RNFT2 (11725882_a_at) / Fold change /veh RNFT2 (11725882_a_at) / RFU NR4A2 (11747474_a_at) / Fold change /veh NR4A2 (11747474_a_at) / RFU ABCC12 (11746883_a_at) / Fold change /veh ABCC12 (11746883_a_at) / RFU TMEM136 (11760407_x_at) / Fold change /veh TMEM136 (11760407_x_at) / RFU CLDN22 /// WWC2 (11732394_at) / Fold change /veh CLDN22 /// WWC2 (11732394_at) / RFU HLA-DPB1 (11760878_x_at) / Fold change /veh HLA-DPB1 (11760878_x_at) / RFU SPINT1 (11716480_a_at) / Fold change /veh SPINT1 (11716480_a_at) / RFU GAP43 (11754022_s_at) / Fold change /veh GAP43 (11754022_s_at) / RFU A4GNT (11735810_at) / Fold change /veh A4GNT (11735810_at) / RFU PRB3 (11715151_x_at) / Fold change /veh PRB3 (11715151_x_at) / RFU TUBB4B (11761932_at) / Fold change /veh TUBB4B (11761932_at) / RFU CAPN14 (11732068_a_at) / Fold change /veh CAPN14 (11732068_a_at) / RFU TMCC2 (11721928_a_at) / Fold change /veh TMCC2 (11721928_a_at) / RFU IRGQ (11745062_a_at) / Fold change /veh IRGQ (11745062_a_at) / RFU FAM174B (11720279_a_at) / Fold change /veh FAM174B (11720279_a_at) / RFU TMPRSS4 (11748680_a_at) / Fold change /veh TMPRSS4 (11748680_a_at) / RFU FAM212B (11763350_a_at) / Fold change /veh FAM212B (11763350_a_at) / RFU PLEKHG5 (11743358_a_at) / Fold change /veh PLEKHG5 (11743358_a_at) / RFU ZSCAN30 (11745921_a_at) / Fold change /veh ZSCAN30 (11745921_a_at) / RFU CMKLR1 (11741424_a_at) / Fold change /veh CMKLR1 (11741424_a_at) / RFU LOC101060620 /// MAPK8IP1 (11723275_at) / Fold change /veh LOC101060620 /// MAPK8IP1 (11723275_at) / RFU SPTSSB (11747773_x_at) / Fold change /veh SPTSSB (11747773_x_at) / RFU PRSS12 (11739890_at) / Fold change /veh PRSS12 (11739890_at) / RFU BIN1 (11741810_x_at) / Fold change /veh BIN1 (11741810_x_at) / RFU WNT11 (11732464_a_at) / Fold change /veh WNT11 (11732464_a_at) / RFU C10orf10 (11716521_a_at) / Fold change /veh C10orf10 (11716521_a_at) / RFU C5orf56 (11738089_at) / Fold change /veh C5orf56 (11738089_at) / RFU CYB561 (11721691_x_at) / Fold change /veh CYB561 (11721691_x_at) / RFU ANKRD19P (11752326_a_at) / Fold change /veh ANKRD19P (11752326_a_at) / RFU OR2T12 /// OR2T33 /// OR2T8 (11738714_s_at) / Fold change /veh OR2T12 /// OR2T33 /// OR2T8 (11738714_s_at) / RFU VCAN (11748164_a_at) / Fold change /veh VCAN (11748164_a_at) / RFU JSRP1 (11732532_at) / Fold change /veh JSRP1 (11732532_at) / RFU KRTAP10-11 (11738290_x_at) / Fold change /veh KRTAP10-11 (11738290_x_at) / RFU MYO3A (11730013_a_at) / Fold change /veh MYO3A (11730013_a_at) / RFU EBF3 (11725865_a_at) / Fold change /veh EBF3 (11725865_a_at) / RFU CAMK2N1 (11719241_x_at) / Fold change /veh CAMK2N1 (11719241_x_at) / RFU C5orf56 (11738088_a_at) / Fold change /veh C5orf56 (11738088_a_at) / RFU OLFML3 (11715873_a_at) / Fold change /veh OLFML3 (11715873_a_at) / RFU LOC100653217 /// NTM (11731650_a_at) / Fold change /veh LOC100653217 /// NTM (11731650_a_at) / RFU MAPK11 (11762145_a_at) / Fold change /veh MAPK11 (11762145_a_at) / RFU FIZ1 (11724087_x_at) / Fold change /veh FIZ1 (11724087_x_at) / RFU OASL (11726364_x_at) / Fold change /veh OASL (11726364_x_at) / RFU SOX15 (11748057_x_at) / Fold change /veh SOX15 (11748057_x_at) / RFU CD79A (11719716_a_at) / Fold change /veh CD79A (11719716_a_at) / RFU HIST1H1D (11736915_at) / Fold change /veh HIST1H1D (11736915_at) / RFU CASKIN2 (11723855_a_at) / Fold change /veh CASKIN2 (11723855_a_at) / RFU LOC730098 (11760151_x_at) / Fold change /veh LOC730098 (11760151_x_at) / RFU OR4N2 (11742367_at) / Fold change /veh OR4N2 (11742367_at) / RFU PRRT2 (11749266_a_at) / Fold change /veh PRRT2 (11749266_a_at) / RFU SNX32 (11753110_a_at) / Fold change /veh SNX32 (11753110_a_at) / RFU CDHR5 (11726645_a_at) / Fold change /veh CDHR5 (11726645_a_at) / RFU RCAN1 (11760418_a_at) / Fold change /veh RCAN1 (11760418_a_at) / RFU FAM167A (11723789_a_at) / Fold change /veh FAM167A (11723789_a_at) / RFU FAM26E (11764081_at) / Fold change /veh FAM26E (11764081_at) / RFU ISYNA1 (11749810_s_at) / Fold change /veh ISYNA1 (11749810_s_at) / RFU ACY1 (11761880_at) / Fold change /veh ACY1 (11761880_at) / RFU 11764098_at / Fold change /veh 11764098_at / RFU SAMD14 (11745864_x_at) / Fold change /veh SAMD14 (11745864_x_at) / RFU NPB (11741838_a_at) / Fold change /veh NPB (11741838_a_at) / RFU TMPRSS6 (11731388_a_at) / Fold change /veh TMPRSS6 (11731388_a_at) / RFU KRTAP10-2 (11738614_at) / Fold change /veh KRTAP10-2 (11738614_at) / RFU ARHGAP8 /// PRR5-ARHGAP8 (11727945_x_at) / Fold change /veh ARHGAP8 /// PRR5-ARHGAP8 (11727945_x_at) / RFU KRTAP5-7 /// NADSYN1 (11734609_at) / Fold change /veh KRTAP5-7 /// NADSYN1 (11734609_at) / RFU RASL12 (11751679_a_at) / Fold change /veh RASL12 (11751679_a_at) / RFU CDKN2B (11736163_a_at) / Fold change /veh CDKN2B (11736163_a_at) / RFU PRF1 (11729649_at) / Fold change /veh PRF1 (11729649_at) / RFU, ZNF638 /// ZNF638-IT1 / Fold change vs veh, ZNF638 /// ZNF638-IT1 / RFU, PANK3 / Fold change vs veh, PANK3 / RFU, SH3YL1 / Fold change vs veh, SH3YL1 / RFU, ZEB2 / Fold change vs veh, ZEB2 / RFU, NRIP1 / Fold change vs veh, NRIP1 / RFU, PTTG1IP / Fold change vs veh, PTTG1IP / RFU, CAPN2 / Fold change vs veh, CAPN2 / RFU, MED14 / Fold change vs veh, MED14 / RFU, SNORA58 / Fold change vs veh, SNORA58 / RFU, C1orf63 / Fold change vs veh, C1orf63 / RFU, LRRFIP1 / Fold change vs veh, LRRFIP1 / RFU, NDUFAF7 / Fold change vs veh, NDUFAF7 / RFU, SLC12A2 / Fold change vs veh, SLC12A2 / RFU, IBTK / Fold change vs veh, IBTK / RFU, ESF1 / Fold change vs veh, ESF1 / Fold change vs veh, TMEM50B / RFU, TAOK1 / Fold change vs veh, TAOK1 / RFU, ACBD3 / Fold change vs veh, ACBD3 / RFU, TMA16 / Fold change vs veh, TMA16 / RFU, RWDD3 / Fold change vs veh, RWDD3 / RFU, BCAT1 / Fold change vs veh, BCAT1 / RFU, EDEM3 / Fold change vs veh, EDEM3 / RFU, TMEM33 / Fold change vs veh, TMEM33 / RFU, WDR75 / Fold change vs veh, WDR75 / RFU, AHCTF1 / Fold change vs veh, AHCTF1 / RFU, TFRC / Fold change vs veh, TFRC / RFU, ZDHHC17 / Fold change vs veh, ZDHHC17 / RFU, NOM1 / Fold change vs veh, NOM1 / RFU, ARL8B / Fold change vs veh, ARL8B / RFU, ZBTB11 / Fold change vs veh, ZBTB11 / RFU, TAMM41 / Fold change vs veh, TAMM41 / RFU, KIAA1704 /// LOC100996395 / Fold change vs veh, KIAA1704 /// LOC100996395 / RFU, ING1 / Fold change vs veh, ING1 / RFU, TRMT61B / Fold change vs veh, TRMT61B / RFU, FUBP3 / Fold change vs veh, FUBP3 / RFU, TP53 / Fold change vs veh, TP53 / RFU, TNKS2 / Fold change vs veh, TNKS2 / RFU, ZFP14 / Fold change vs veh, ZFP14 / RFU, ACTR2 / Fold change vs veh, ACTR2 / RFU, PPP3R1 / Fold change vs veh, PPP3R1 / RFU, PIK3R1 / Fold change vs veh, PIK3R1 / RFU, HNRNPA1 / Fold change vs veh, HNRNPA1 / RFU, RNF170 / Fold change vs veh, RNF170 / RFU, ZNF28 / Fold change vs veh, ZNF28 / RFU, RNGTT / Fold change vs veh, RNGTT / RFU, OGT / Fold change vs veh, OGT / RFU, BRD1 / Fold change vs veh, BRD1 / RFU, MARS / Fold change vs veh, MARS / RFU, ZNF655 / Fold change vs veh, ZNF655 / RFU, FAHD1 / Fold change vs veh, FAHD1 / RFU, BDP1 / Fold change vs veh, BDP1 / RFU, LRRCC1 / Fold change vs veh, LRRCC1 / RFU, ARID1A / Fold change vs veh, ARID1A / RFU, ZNF146 / Fold change vs veh, ZNF146 / RFU, ZNF330 / Fold change vs veh, ZNF330 / RFU, GPN3 / Fold change vs veh, GPN3 / RFU, C9orf123 / Fold change vs veh, C9orf123 / RFU, N4BP2L2 / Fold change vs veh, N4BP2L2 / RFU, ARFIP1 / Fold change vs veh, ARFIP1 / RFU, FAM179B / Fold change vs veh, FAM179B / RFU, BCL10 / Fold change vs veh, BCL10 / RFU, UHRF1BP1L / Fold change vs veh, UHRF1BP1L / RFU, BET1 / Fold change vs veh, BET1 / RFU, CNOT2 / Fold change vs veh, CNOT2 / RFU, ZNF268 / Fold change vs veh, ZNF268 / Fold change vs veh, ZNF507 / RFU, DGCR2 / Fold change vs veh, DGCR2 / RFU, WDSUB1 / Fold change vs veh, WDSUB1 / Fold change vs veh, HSP90B1 /// MIR3652 / RFU, ADSS / Fold change vs veh, ADSS / RFU, GK / Fold change vs veh, GK / RFU, ZNF148 / Fold change vs veh, ZNF148 / RFU, TAF9 / Fold change vs veh, TAF9 / RFU, SLC1A5 / Fold change vs veh, SLC1A5 / RFU, SLMO2 / Fold change vs veh, SLMO2 / RFU, ABCC4 / Fold change vs veh, ABCC4 / RFU, LOC101060439 /// RAP1B / Fold change vs veh, LOC101060439 /// RAP1B / RFU, RFX7 / Fold change vs veh, RFX7 / RFU, GTPBP10 / Fold change vs veh, GTPBP10 / RFU, CNEP1R1 / Fold change vs veh, CNEP1R1 / RFU, BIVM-ERCC5 /// ERCC5 / Fold change vs veh, BIVM-ERCC5 /// ERCC5 / RFU, ILF3 / Fold change vs veh, ILF3 / RFU 11762660_at / Fold change /veh 11762660_at / RFU VCAN (11757783_s_at) / Fold change /veh VCAN (11757783_s_at) / RFU DDX43 (11728927_at) / Fold change /veh DDX43 (11728927_at) / RFU KRT8 (11758188_x_at) / Fold change /veh KRT8 (11758188_x_at) / RFU NKD1 (11759106_at) / Fold change /veh NKD1 (11759106_at) / RFU SRD5A1 (11742802_a_at) / Fold change /veh SRD5A1 (11742802_a_at) / RFU TPSAB1 /// TPSB2 (11721975_s_at) / Fold change /veh TPSAB1 /// TPSB2 (11721975_s_at) / RFU GSTM3 (11746129_a_at) / Fold change /veh GSTM3 (11746129_a_at) / RFU IL23R (11737362_x_at) / Fold change /veh IL23R (11737362_x_at) / RFU TMEM51 (11727254_a_at) / Fold change /veh TMEM51 (11727254_a_at) / RFU PIWIL2 (11732686_x_at) / Fold change /veh PIWIL2 (11732686_x_at) / RFU ORM1 (11744905_x_at) / Fold change /veh ORM1 (11744905_x_at) / RFU CCDC152 (11743942_at) / Fold change /veh CCDC152 (11743942_at) / RFU ECM1 (11717891_a_at) / Fold change /veh ECM1 (11717891_a_at) / RFU IL23R (11748794_a_at) / Fold change /veh IL23R (11748794_a_at) / RFU TNFAIP8L3 (11732012_x_at) / Fold change /veh TNFAIP8L3 (11732012_x_at) / RFU MBOAT4 (11741988_at) / Fold change /veh MBOAT4 (11741988_at) / RFU 11764193_at / Fold change /veh 11764193_at / RFU TMEM53 (11763286_at) / Fold change /veh TMEM53 (11763286_at) / RFU MAGEB2 (11727129_at) / Fold change /veh MAGEB2 (11727129_at) / RFU TMEM200A (11744735_a_at) / Fold change /veh TMEM200A (11744735_a_at) / RFU CCDC152 (11751479_a_at) / Fold change /veh CCDC152 (11751479_a_at) / RFU FAM211A (11726209_a_at) / Fold change /veh FAM211A (11726209_a_at) / RFU RGS16 (11746705_a_at) / Fold change /veh RGS16 (11746705_a_at) / RFU VCAN (11755009_s_at) / Fold change /veh VCAN (11755009_s_at) / RFU RHOB (11743442_s_at) / Fold change /veh RHOB (11743442_s_at) / RFU RGS16 (11720943_a_at) / Fold change /veh RGS16 (11720943_a_at) / RFU RGS16 (11720944_at) / Fold change /veh RGS16 (11720944_at) / RFU, VPS4B / Fold change vs veh, VPS4B / RFU, CREB1 / Fold change vs veh, CREB1 / RFU, DNAJC13 / Fold change vs veh, DNAJC13 / RFU, GNAQ / Fold change vs veh, GNAQ / RFU, CDK5R1 / Fold change vs veh, CDK5R1 / RFU, ZRANB3 / Fold change vs veh, ZRANB3 / RFU, CUL4A / Fold change vs veh, CUL4A / RFU, CCNY / Fold change vs veh, CCNY / RFU, UFL1 / Fold change vs veh, UFL1 / RFU, COG3 / Fold change vs veh, COG3 / RFU, DIAPH2 / Fold change vs veh, DIAPH2 / RFU, SKA2 / Fold change vs veh, SKA2 / RFU, AFF3 / Fold change vs veh, AFF3 / RFU, LMF1 / Fold change vs veh, LMF1 / RFU, IPO11 / Fold change vs veh, IPO11 / RFU, DFFB / Fold change vs veh, DFFB / RFU, FOXP1 / Fold change vs veh, FOXP1 / RFU, CARD8 / Fold change vs veh, CARD8 / RFU, STRN3 / Fold change vs veh, STRN3 / RFU, ADK / Fold change vs veh, ADK / RFU, RASSF2 / Fold change vs veh, RASSF2 / RFU, WIPF1 / Fold change vs veh, WIPF1 / RFU, LARP1B / Fold change vs veh, LARP1B / RFU, RASA1 / Fold change vs veh, RASA1 / RFU, RB1 / Fold change vs veh, RB1 / RFU, PPFIA1 / Fold change vs veh, PPFIA1 / RFU, MAT2A / Fold change vs veh, MAT2A / RFU, CCT5 / Fold change vs veh, CCT5 / RFU, WDR92 / Fold change vs veh, WDR92 / RFU, CUX1 / Fold change vs veh, CUX1 / RFU, TTC7A / Fold change vs veh, TTC7A / RFU, TMEM135 / Fold change vs veh, TMEM135 / RFU, DEPTOR / Fold change vs veh, DEPTOR / RFU, CPM / Fold change vs veh, CPM / RFU, DNAJB6 / Fold change vs veh, DNAJB6 / RFU, CACNA2D3 / Fold change vs veh, CACNA2D3 / RFU, DTX4 / Fold change vs veh, DTX4 / RFU, TFCP2 / Fold change vs veh, TFCP2 / RFU, GMCL1 /// GMCL1P1 / Fold change vs veh, GMCL1 /// GMCL1P1 / RFU, AEBP2 / Fold change vs veh, AEBP2 / RFU, SNHG1 /// SNORD22 /// SNORD25 /// SNORD26 /// SNORD27 /// SNORD28 /// SNORD29 /// SNORD31 / Fold change vs veh, SNHG1 /// SNORD22 /// SNORD25 /// SNORD26 /// SNORD27 /// SNORD28 /// SNORD29 /// SNORD31 / Fold change (Aza/veh), C12orf56 (ProbeSet 11735607_a_at) / Fold change (ACY-1035/veh), C12orf56 (ProbeSet 11735607_a_at) / Fold change (Aza/veh), FGFR1OP (ProbeSet 11751329_s_at) / Fold change (ACY-1035/veh), FGFR1OP (ProbeSet 11751329_s_at) / Fold change (Aza/veh), VPS36 (ProbeSet 11739960_a_at) / Fold change (ACY-1035/veh), VPS36 (ProbeSet 11739960_a_at) / RFU SYPL1 (11715823_x_at) / Fold change /veh SYPL1 (11715823_x_at) / RFU IGFBP7 (11715501_s_at) / Fold change /veh IGFBP7 (11715501_s_at) / RFU REEP3 (11722064_at) / Fold change /veh REEP3 (11722064_at) / RFU IGLL1 (11728026_x_at) / Fold change /veh IGLL1 (11728026_x_at): dose or concentration left out as unconfirmed
# Conditions: ProbeSet 11755425_a_at; LIST B
smiles,measurement,value
Nc1ncn([C@@H]2O[C@H](CO)[C@@H](O)[C@H]2O)c(=O)n1 [azacitidine],"RFU, FAM179B",66.28 RFU
